The results in this text go back to patent US8524748B2, “Heteroalkyl biphenyl antagonists of prostaglandin D2 receptors” (Panmira Pharmaceuticals, LLC, priority 2008, dated 2013).

pIC50: −log10 of the molar value. A value given as a limit tells only on which side of the number the result lay.

The test concerns the target T1, human DP2 receptor (Homo sapiens, UniProt Q9Y5Y4).
T1 construct: expressed in transfected cells; membranes prepared from them
T1 sequence (Q9Y5Y4 1-395): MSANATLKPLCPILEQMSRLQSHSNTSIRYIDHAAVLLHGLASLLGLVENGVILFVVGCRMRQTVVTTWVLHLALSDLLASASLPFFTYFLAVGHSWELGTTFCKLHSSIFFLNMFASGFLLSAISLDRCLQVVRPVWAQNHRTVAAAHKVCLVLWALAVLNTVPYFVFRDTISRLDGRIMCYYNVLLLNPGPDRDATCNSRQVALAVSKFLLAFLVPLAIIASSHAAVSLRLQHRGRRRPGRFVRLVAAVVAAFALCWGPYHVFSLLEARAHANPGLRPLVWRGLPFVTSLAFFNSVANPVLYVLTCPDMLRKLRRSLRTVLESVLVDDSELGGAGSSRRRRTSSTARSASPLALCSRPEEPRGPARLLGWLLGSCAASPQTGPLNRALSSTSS
Put plainly: DP2/CRTH2 radioligand binding assay using [3H]PGD2. Conditions: membranes of HEK293 cells stably expressing recombinant human DP2; 1 nM [3H]PGD2; read-out: hDP2 IC50. The protocol:
The ability of a compound to bind to the human DP2 receptor is assessed via a radioligand binding assay using [^3H]PGD2. HEK293 cells stably expressing recombinant human DP2 are resuspended in 10 mM Hepes, 7.4 containing 1 mM DTT, lysed and centrifuged at 75,000×g to pellet the membranes. The membranes are resuspended in 10 mM Hepes, 7.4 containing 1 mM DTT and 10% glycerol to approximately 5 mg protein/ml. Membranes (2-10 μg protein/well) are incubated in 96-well plates with 1 nM [^3H]PGD2 and test compound in Assay Buffer (50 mM Hepes, 10 mM MnCl2, 1 mM EDTA, plus or minus 0.2% human serum albumin, pH 7.4) for 60 minutes at room temperature. The reactions are terminated by rapid filtration through Whatman GF/C glass fibre filter plates. The filter plates were pre-soaked in 0.33% polythylenimine for 30 minutes at room temperature then washed in Wash Buffer (50 mM Hepes, 0.5 M NaCl pH 7.4) prior to harvesting. After harvesting, the filter plates are washed 3 times with 1 ml cold Wash Buffer then dried. Scintillant is then added to the plates and the radioactivity retained on the filters is determined on a Packard TopCount (Perkin Elmer). Specific binding is determined as total radioactive binding minus non-specific binding in the presence of 10 μM PGD2. IC50s were determined using GraphPad prism analysis of drug titration curves.
As for `COc1ccc(CC(=O)O)cc1-c1ccc(C(F)(F)F)cc1CSc1ccccc1` [Compound 1-1, (6-Methoxy-2′-phenylsulfanylmethyl-4′-trifluoromethyl-biphenyl-3-yl)-acetic acid], the negative-log IC50 (pIC50) (as a rule, −log10 of the IC50, conventionally taken in molar units) is above 6.00.
For `COc1ccc(CC(=O)O)cc1-c1ccc(C(F)(F)F)cc1CSCc1ccccc1` [Compound 1-2, (2′-Benzylsulfanylmethyl-6-methoxy-4′-trifluoromethyl-biphenyl-3-yl)-acetic acid] the value was above 6.00.
Consider `COc1ccc(CC(=O)O)cc1-c1ccc(C(F)(F)F)cc1CSC(C)(C)C` [Compound 1-3, (2′-tert-Butylsulfanylmethyl-6-methoxy-4′-trifluoromethyl-biphenyl-3-yl)-acetic acid], for which the pIC50 was 5.00 to 6.00.
Take `COc1ccc(CC(=O)O)cc1-c1ccc(C(F)(F)F)cc1CSc1nnc(C)s1` [Compound 1-4, [6-Methoxy-2′-(5-methyl-[1,3,4]thiadiazol-2-ylsulfanylmethyl)-4′-trifluoromethyl-biphenyl-3-yl]-acetic acid]: the pIC50 is above 6.00.
As for `COc1ccc(CC(=O)O)cc1-c1ccc(C(F)(F)F)cc1CSCC(F)(F)F` [Compound 1-5, [6-Methoxy-2′-(2,2,2-trifluoro-ethylsulfanylmethyl)-4′-trifluoromethyl-biphenyl-3-yl]-acetic acid], the figure is 5.00 to 6.00; as for `COc1ccc(CC(=O)O)cc1-c1ccc(C(F)(F)F)cc1COc1ccccc1` [Compound 1-6, (6-Methoxy-2′-phenoxymethyl-4′-trifluoromethyl-biphenyl-3-yl)-acetic acid], 5.00 to 6.00.
For `COc1ccc(CC(=O)O)cc1-c1ccc(C(F)(F)F)cc1C[S+]([O-])c1ccccc1` (centres unmarked) [Compound 1-7, (2′-Benzenesulfinylmethyl-6-methoxy-4′-trifluoromethyl-biphenyl-3-yl)-acetic acid] the value was below 5.00.
Consider `COc1ccc(CC(=O)O)cc1-c1ccc(C(F)(F)F)cc1C[S+]([O-])Cc1ccccc1` (centres unmarked) [Compound 1-8, (6-Methoxy-2′-phenylmethanesulfinylmethyl-4′-trifluoromethyl-biphenyl-3-yl)-acetic acid], for which the pIC50 is below 5.00.
As for `COc1ccc(CC(=O)O)cc1-c1ccc(C(F)(F)F)cc1C[S+]([O-])C(C)(C)C` (centres unmarked) [Compound 1-9, [6-Methoxy-2′-(2-methyl-propane-2-sulfinylmethyl)-4′-trifluoromethyl-biphenyl-3-yl]-acetic acid], the figure is below 5.00; as for `COc1ccc(CC(=O)O)cc1-c1ccc(C(F)(F)F)cc1C[S+]([O-])c1nnc(C)s1` (centres unmarked) [Compound 1-10, [6-Methoxy-2′-(5-methyl-[1,3,4]thiadiazole-2-sulfinylmethyl)-4′-trifluoromethyl-biphenyl-3-yl]-acetic acid], below 5.00.
As for `COc1ccc(CC(=O)O)cc1-c1ccc(C(F)(F)F)cc1CS(=O)(=O)c1ccccc1` [Compound 1-11, (2′-Benzenesulfonylmethyl-6-methoxy-4′-trifluoromethyl-biphenyl-3-yl)-acetic acid], the figure is 5.00 to 6.00; as for `COc1ccc(CC(=O)O)cc1-c1ccc(C(F)(F)F)cc1CS(=O)(=O)Cc1ccccc1` [Compound 1-12, (6-Methoxy-2′-phenylmethanesulfonylmethyl-4′-trifluoromethyl-biphenyl-3-yl)-acetic acid], 5.00 to 6.00; as for `COc1ccc(CC(=O)O)cc1-c1ccc(C(F)(F)F)cc1CS(=O)(=O)C(C)(C)C` [Compound 1-13, [6-Methoxy-2′-(2-methyl-propane-2-sulfonylmethyl)-4′-trifluoromethyl-biphenyl-3-yl]-acetic acid], below 5.00.
Take `COc1ccc(CC(=O)O)cc1-c1ccc(C(F)(F)F)cc1CS(=O)(=O)c1nnc(C)s1` [Compound 1-14, [6-Methoxy-2′-(5-methyl-[1,3,4]thiadiazole-2-sulfonylmethyl)-4′-trifluoromethyl-biphenyl-3-yl]-acetic acid]: the pIC50 is 5.00 to 6.00.
As for `CCN(Cc1ccccc1)C(=O)OCc1cc(C(F)(F)F)ccc1-c1cc(CC(=O)O)ccc1OC` [Compound 1-15, {2′-[(Benzyl-ethyl-carbamoyloxy)-methyl]-6-methoxy-4′-trifluoromethyl-biphenyl-3-yl}-acetic acid], the figure is 5.00 to 6.00.
With `CCN(Cc1ccccc1)C(=O)OCc1cc(C(F)(F)F)ccc1-c1cc(CC(=O)O)ccc1F` [Compound 1-16, {2′-[(Benzyl-ethyl-carbamoyloxy)-methyl]-6-fluoro-4′-trifluoromethyl-biphenyl-3-yl}-acetic acid], the pIC50 was above 6.00.
For the compound `O=C(O)CCn1c2c(c3ccccc31)C[C@H](NS(=O)(=O)c1ccc(F)cc1)CC2` [Ramatroban, reference compound], the pIC50 is above 6.00.
